Assay: Hemolytic activity in mouse erythrocytes assessed as haemoglobin release at 10 uM incubated for 1 hrs by microplate reader method
Format: toxicity, cell-based, Erythrocyte
Settings: read-out: Activity

Q: With CC[C@H](C)[C@H](NC(=O)CN)C(=O)NCC(=O)N[C@@H](C)C(=O)N[C@H](C(=O)N[C@@H](CC(C)C)C(=O)N[C@@H](CCCCN)C(=O)N[C@H](C(=O)N[C@@H](CC(C)C)C(=O)N[C@H](C(=O)N[C@H](C(=O)NCC(=O)N[C@@H](CC(C)C)C(=O)N1CCC[C@H]1C(=O)N[C@@H](C)C(=O)N[C@@H](CC(C)C)C(=O)N[C@H](C(=O)N[C@@H](CO)C(=O)N[C@@H](Cc1c[nH]c2ccccc12)C(=O)N[C@H](C(=O)N[C@@H](CCCCN)C(=O)N[C@@H](CCCNC(=N)N)C(=O)N[C@@H](CCCCN)C(=O)N[C@@H](CCCNC(=N)N)C(=O)N[C@@H](CCC(N)=O)C(=O)N[C@@H](CCC(N)=O)C(N)=O)[C@@H](C)CC)[C@@H](C)CC)[C@@H](C)O)[C@@H](C)O)C(C)C)C(C)C [MELITTIN] as the compound, how does the hemolysis at 1 h, 10 µM read?
A: Its hemolysis at 1 h, 10 µM is 58.8%.

Source: ChEMBL document CHEMBL5338731, “Development of Neuropeptide Hemokinin-1 Analogues with Antimicrobial and Wound-Healing Activity” (J Med Chem, 2023)
